Assay results from PMC7473970, “Preformulation Studies of a Stable PTEN-PDZ Lipopeptide Able to Cross an In Vitro Blood-Brain-Barrier Model as a Potential Therapy for Alzheimer’s Disease” (Pharmaceutical Research, 2020).
Read-outs that look alike come from different tables or passages of the source. Residues, ends and D or L forms follow the SMILES beside them.

What was measured:
[1] = In vitro stability in 50% liver homogenate; assay type: in vitro ADME, mouse; conditions: 37°C; for k: 50% w/v CD-1 mouse liver homogenate in PBS pH 7.4, 120 μL of 5 mM DMSO stock in 1080 μL, 100 rpm, 0-1440 min; for k / t1/2 (h) / t1/2 (min): HPLC-UV 220 nm, one phase decay, least square fit, n = 3; for t1/2 (h) / t1/2 (min): 50% w/v mouse liver homogenate in PBS pH 7.4
Procedure: (§1) The samples were analyzed at 40°C on a Phenomenex Lichrosorb RP8 C8 column (4.0 mm × 250 mm, 5 μm), using the gradient elution method on an Agilent HPLC system (Agilent Technologies, Cheadle, UK) equipped with an 1100 series degasser, quaternary pump, autosampler, and column heater, and attached to an Agilent 1200 series PDA detector and a 1250 series fluorescent detector. The flow rate was set at 1.2 mL min^-1, and the injection volume was set at 40 μL, while detection was performed at 220 nm. The mobile phase was a mixture of mobile phase A (0.1% TFA in water) and phase B (0.08% TFA in acetonitrile), and in the first 5 min, the mobile phase was an 8:2 ratio of A:B (v/v) and from 5 to 15 min the percentage of B was raised from 8:2 to 1:9 (v/v). Linear calibration curves were constructed for both peptides between 0.1–100 μg.mL^−1. The retention time for the human Lau–PTEN-PDZ, mouse Lau–PTEN-PDZ, human Myr–PTEN-PDZ, and mouse Myr–PTEN-PDZ was 12.03, 11.60, 13.68, and 13.91, respectively.
(§2) The liver and brain of the mice were excised from […] CD-1 male mice (7 weeks-old: Charles River Laboratories) sacrificed with CO2, and the tissue was frozen immediately with liquid nitrogen prior to storage at −80°C. The liver and brain tissue were thawed and homogenized on ice in PBS (2 mL/g of tissue) using a glass 3 mL tissue homogenizer (20 strokes per sample), and the liver and brain homogenates were centrifuged (Heraeus Multifuge 3sf, Fisher Scientific, Basingstoke, UK) at 4300 g for 60 min at 4°C and at 3000 g for 20 min at 4°C, respectively. The supernatant was stored at −80°C, diluted 1:1 (v/v) with PBS (1x, pH 7.4), and used in stability studies. Peptides stocks (5 mM in DMSO) were prepared and maintained at −20°C prior to performing stability studies. These stock solutions (120 μL) were added to the diluted pre-warmed (37°C) liver or brain homogenate (50% v/v, 1080 μL) with agitation (100 rpm: Grant Aqua Waterbath), and samples (80 μL) were taken at 0, 5, 10, 15, 30, 45, 60, 90, 120, 180, 240, 360 and 1440 min, and diluted with ice-cold acetonitrile (80 μL). Samples were vortexed and left at −80°C at least overnight to allow for maximum protein precipitation, the samples were vortexed again for 15 min, centrifuged and the supernatant was analyzed by HPLC as described above.
(§3) The total protein concentration in the homogenates was determined using the Bradford protein assay ([7],[15]) and BSA as a standard. Ten stock solutions of BSA were prepared in PBS between 0.1–1 mg mL^−1, and 40 μL of each of the diluted stocks were added to 1.2 mL of Bradford reagent and incubated at room temperature for 5 min. The absorbance was recorded at 595 nm using a Multiskan GO spectrophotometer and the SkanIt software (Thermo Scientific, Paisley, UK). A linear calibration curve was obtained in this range that was used to extrapolate the protein content of 1:100 v/v stock solutions of 50% mouse plasma, liver, and brain homogenates diluted in PBS.

[2] = In vitro stability in simulated intestinal fluid (mouse intestinal wash); assay type: in vitro ADME; conditions: 120 μL of 5 mM DMSO stock in 1080 μL, 37°C, 0-1440 min, HPLC-UV 220 nm, n = 3; for k: Simulated intestinal fluid = undiluted pooled CD-1 mouse duodenum/ileum wash in 50 mM phosphate buffer pH 6.63, 100 rpm, one phase decay, least square fit; for t1/2 (h) / t1/2 (min): Simulated intestinal fluid = undiluted pooled CD-1 mouse duodenum/ileum wash, phosphate buffer pH 6.63, one phase decay fit
Procedure: as §1
The duodenum and ileum were excised from 10 non-fasted CD-1 male mice (7 weeks-old: Charles River Laboratories) that were sacrificed with CO2. Each duodenum and ileum were washed with 6 ml of phosphate buffer (50 mM, pH 6.63), and all the washes were pooled prior to centrifugation at 4000 rpm for 15 min at 4°C (Heraeus Multifuge 3sf) ([7],[15]). The intestinal wash was removed and frozen at −80°C prior to using it in stability studies without further dilution. Peptides stocks (5 mM in DMSO) were prepared and maintained at −20°C prior to performing stability studies. A stock peptide solution (120 μL) was added to the diluted pre-warmed (37°C) intestinal wash (1080 μL) with agitation at 100 rpm (Grant Aqua Waterbath), and samples (80 μL) were taken at 0, 15, 30, 45, 60, 90, 120, 180, 240, 360 and 1440 min, and diluted with ice-cold glacial acetic acid (17.5 M): acetonitrile (5:95 v/v, 80 μL) to quench the enzyme activity. Samples were vortexed and left in −80°C at least overnight to maximize protein precipitation, and after vortexing again for 15 min and centrifuging, the supernatant was analyzed by HPLC as described above.

[3] = In vitro stability in 50% v/v mouse plasma; assay type: in vitro ADME; conditions: 37°C, HPLC-UV 220 nm, one phase decay, least square fit, n = 3; for k: 50% v/v CD-1 mouse plasma (K3 EDTA) in PBS, 120 μL of 5 mM DMSO stock in 1080 μL, 100 rpm, 0-1440 min
Procedure: CD-1 male mice (7 weeks old: Charles River Laboratories) were sacrificed with CO2, and blood was collected in K3E EDTA spray-coated vacutainers and kept on ice prior to centrifugation at 3000 rpm for 15 min at 4°C (Heraeus Multifuge 3sf). Mouse plasma samples were stored at −80°C before use in stability studies. Study was approved by the University of Portsmouth Animal Welfare and Ethical Review Body (UoP AWERB body, 817).
For testing, the plasma was diluted (1:1) in PBS without phenol and pre-warmed to 37°C. Peptides stocks (5 mM in DMSO) were prepared and maintained at −20°C before performing the stability studies. Peptide stock solutions (120 μL) were added to pre-warmed diluted plasma (50% v/v, 1080 μL) and maintained at 37°C with agitation (100 rpm: Grant Aqua Waterbath, Royston, UK). Samples (80 μL) were taken at 0, 3, 6,9, 15, 30, 45, 60, 90, 120, 180, 240, 360 and 1440 min, diluted with ice-cold acetonitrile (80 μL), vortexed and left in −80°C at least overnight to favor maximal protein precipitation. The samples were then vortexed again for 15 min (SciQuip microplate shaker, Shropshire, UK), centrifuged in a Thermo Sci Jouan B4i Centrifuge (Hemel Hampstead, UK) and the supernatant was transferred to an HPLC vial (200 μL).
as §1

[4] = In vitro stability in 50% brain homogenate; assay type: in vitro ADME, mouse; conditions: 37°C, HPLC-UV 220 nm, one phase decay, least square fit, n = 3; for k: 50% w/v CD-1 mouse brain homogenate in PBS pH 7.4, 120 μL of 5 mM DMSO stock in 1080 μL, 100 rpm, 0-1440 min; for t1/2 (h) / t1/2 (min): 50% w/v mouse brain homogenate in PBS pH 7.4
Procedure: as §1, §2, §3

[5] = Permeability across in vitro 2D human blood-brain barrier model; assay type: in vitro ADME
[6] = read-out: Papp0-4h, Experiment 2
[7] = 50% w/v mouse liver homogenate, two phase decay fit, fast phase
[8] = 50% w/v mouse liver homogenate, two phase decay fit, slow phase

| SMILES | k [1] [h⁻¹] | t1/2 (h) [1] [h] | t1/2 (min) [1] [min] | k [2] [h⁻¹] | t1/2 (h) [2] [h] | t1/2 (min) [2] [min] | k [3] [h⁻¹] | t1/2 (h) ([3]; 50% v/v mouse plasma in PBS) | t1/2 (min) ([3]; 50% v/v mouse plasma in PBS) | k [4] [h⁻¹] | t1/2 (h) [4] [h] | t1/2 (min) [4] [min] | Papp A→B at 100 μM [5, 6] [×10⁻⁶ cm/s] | further results |
| --- | --- | --- | --- | --- | --- | --- | --- | --- | --- | --- | --- | --- | --- | --- |
| CCCCCCCCCCCC(=O)N[C@@H](CCC(N)=O)C(=O)N[C@@H](Cc1c[nH]cn1)C(=O)N[C@@H](CO)C(=O)N[C@@H](CCC(N)=O)C(=O)N[C@H](C(=O)N[C@H](C(=O)N[C@@H](CCCCN)C(=O)N[C@H](C(=O)O)C(C)C)[C@@H](C)O)[C@@H](C)CC [Mouse Lau-PTEN-PDZ] (HELM PEPTIDE1{[CCCCCCCCCCCC(=O)[*:2]].Q.H.S.Q.I.T.K.V}$$$$V2.0) | 0.73 | 0.95 | 57.14 | 2.34 | 0.30 | 17.77 | 0.12 | 5.86 | 351.84 | 3.48 | 0.20 | 11.95 | – | half-life at 0.5 mM ([3]; male, CD-1, 50% v/v mouse plasma (K3 EDTA) diluted in PBS, 50% v/v mouse plasma in PBS): 354 min; Papp A→B at 100 μM ([5]; read-out: Papp0-4h, Experiment 1): 6.28 ± 1.85 ×10⁻⁶ cm/s |
| CCCCCCCCCCCC(=O)N[C@@H](CCC(N)=O)C(=O)N[C@@H](Cc1c[nH]cn1)C(=O)N[C@H](C(=O)N[C@@H](CCC(N)=O)C(=O)N[C@H](C(=O)N[C@H](C(=O)N[C@@H](CCCCN)C(=O)N[C@H](C(=O)O)C(C)C)[C@@H](C)O)[C@@H](C)CC)[C@@H](C)O [Human Lau-PTEN-PDZ] (HELM PEPTIDE1{[CCCCCCCCCCCC(=O)[*:2]].Q.H.T.Q.I.T.K.V}$$$$V2.0) | 1.15 | 0.60 | 36.28 | 0.23 | 2.96 | 177.96 | 4.60 | 0.15 | 9.05 | 1.90 | 0.36 | 21.87 | 5.57 ± 0.29 | – |
| CCCCCCCCCCCCCC(=O)N[C@@H](CCC(N)=O)C(=O)N[C@@H](Cc1c[nH]cn1)C(=O)N[C@H](C(=O)N[C@@H](CCC(N)=O)C(=O)N[C@H](C(=O)N[C@H](C(=O)N[C@@H](CCCCN)C(=O)N[C@H](C(=O)O)C(C)C)[C@@H](C)O)[C@@H](C)CC)[C@@H](C)O [Human Myr-PTEN-PDZ] (HELM PEPTIDE1{[CCCCCCCCCCCCCC(=O)[*:2]].Q.H.T.Q.I.T.K.V}$$$$V2.0) | 0.04 | 18.5 | 1110 | 0.25 | – | – | 6.17 | 0.11 | 6.74 | 4.20 | 0.16 | 9.89 | 3.77 ± 0.39 | k (fast) [1, 7]: 3.05 h⁻¹; t1/2 (h) fast [1, 7]: 0.23 h; t1/2 (min) fast [1, 7]: 13.63 min; k (slow) [1, 8]: 0.0005 h⁻¹; t1/2 (h) slow [1, 8]: 1510 h; t1/2 (min) slow [1, 8]: 90,600 min |
